Structures can show the parent of a compound that is named as a salt.
Columns and labels:
[1] = rat, in vivo, po; cited from earlier work
[2] = system: SH-SY5Y neuroblastoma cells; test: MTT cell viability assay, Aβ(25–35)-induced neurotoxicity; format: cell-based; details: Aβ(25–35) 25 μM
Description: Cells were cultured in MEM supplemented with 10% heat-inactivated defined FBS, and an antibiotic mixture of 100 units/mL of penicillin and 100 μg/mL streptomycin, and grown at 37 °C in a humid atmosphere with 5% CO2.
Following the treatment, cell viability was assessed using MTT reduction assay. After adding 10 μL/well of MTT (5 mg/L) and incubating for 4 h, the supernatants were removed and 100 μL of DMSO was added in wells. After 1 h incubation at room temperature in the microshaker, the absorbance of the sample was measured by the microplate spectrophotometer reader (Molecular Devices, Sunnyvale, CA, USA) at 570 nm. The cell viability rate (%) was calculated as the absorbance of treated cells divided by that of control cells. The viability of the control cells was defined as 100%. Three independent experiments were performed in triplicate.

Compound | donepezil excreted into urine [1] [%] | reduction of cell viability compared to vehicle treatment [2] [%]
COc1cc2c(cc1OC)C(=O)C(CC1CCN(Cc3ccccc3)CC1)C2 (centres unmarked) [DNP, Donepezil hydrochloride] | 1.52 | –
Aβ(25–35): β-amyloid fragment used to induce neurotoxicity in SH-SY5Y cells (GSNKGAIIGLM; Amyloid-beta protein 42; UniProt P05067 696-706, looked up, fragment) | – | 36.0
